From PubChem BioAssay AID720677 (Sanford-Burnham Center for Chemical Genomics, 2013) come the findings set out here.

Activity calls are given as the source filed them.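 Rule for the calls: active = compounds whose IC50 is at or below a set limit; inactive = the rest.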

For this experiment, the target named is Bcl-2-like protein 10 (Homo sapiens) (UniProt Q9HD36). Put plainly: Bcl-B inhibitors displacing Bim peptide, SAR follow-up, biochemical, fluorescence polarization, set 2 (AID 720677). As to conditions: GST-Bcl-B / FITC-Bim peptide fluorescence polarization displacement.
Sequence of Bcl-2-like protein 10 (Homo sapiens) (Q9HD36 whole entry, looked up): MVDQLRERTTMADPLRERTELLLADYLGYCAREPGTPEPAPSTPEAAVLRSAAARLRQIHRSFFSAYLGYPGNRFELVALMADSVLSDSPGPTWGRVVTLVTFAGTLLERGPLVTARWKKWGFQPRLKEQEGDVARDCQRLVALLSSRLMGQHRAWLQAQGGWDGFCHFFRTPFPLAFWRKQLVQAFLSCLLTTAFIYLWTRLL
Regarding `O=c1c2c(n3nnnc3n1Cc1ccccc1Cl)-c1ccccc1CC21CCCC1`, the IC50 is > 20000 nM (inactive). Take `COc1ccccc1Cn1c(=O)c2c(n3nnnc13)-c1ccccc1CC21CCCC1`: the IC50 is > 20000 nM (inactive). For the molecule `O=c1c2c(n3cnnc3n1Cc1ccc(F)cc1)-c1cc(F)ccc1CC21CCCC1`, the IC50 is > 20000 nM (inactive).

For `COc1ccc(Cn2c(=O)c3c(n4nnnc24)-c2ccccc2CC32CCCC2)cc1`, the IC50 is 795 nM. For the molecule `COc1ccc(Cn2c(=O)c3c(n4cnnc24)-c2cc(F)ccc2CC32CCCC2)cc1`, the IC50 was 3430 nM. Take `COc1ccc(Cn2c(=O)c3c(n4nnnc24)-c2cc(F)ccc2CC32CCCC2)cc1`: the IC50 was 1010 nM. For `COc1cccc(Cn2c(=O)c3c(n4nnnc24)-c2ccccc2CC32CCCC2)c1`, the IC50 was 985 nM.
